The text below walks through data of US20250051266A1, “Novel GLV-Phenolamide: Biosynthesis and Function in Protecting Plants from Herbivore Attack” (Max-Planck-Gesellschaft zur Förderung der Wissenschaften …, priority 2021, published 2025).

For series [1], the target named is NaPPO2 (Nicotiana attenuata, UniProt A0A1J6IKE9). In words: In vitro enzyme assay, substrate specificity of NaPPO2. The format is biochemical. The source says: (§1) Extracted ion chromatograms (EIC) for doubly charged CP dimer (m/z 250.13) and m/z 347.19 in E. coli expressing NaPPO1 and NaPPO2 with CP and Z3H or (E)-2-hexenal. Compounds 1, 2, 3, 4 denote isomers of CP dimer; compounds 5, 6 denote isomers of m/z 347.19.
(§2) FIG. 53 Substrate specificity of NaPPO1 and NaPPO2 enzymes. Overlay of total ion chromatograms (TIC) of enzyme assays for authentic chlorogenic acid (CGA std), N-coumaroylputrescine (CoP std), (Z)-3-hexenal or (E)-2-hexenal with purified NaPPO1/NaPPO2 from E. coli. Compounds 1 and 2 denote CGA and CoP; 3 and 4 denote contamination peaks from (Z)-3-hexenal and CoP standards, respectively.
(§3) To test this hypothesis, purified NaPPO1, NaPPO2 and NaBBL2 proteins with N-terminal hexahistidine tags after expression in Escherichia coli were isolated (FIGS. 44-45). Incubation of either NaPPO1 or NaPPO2 (NaPPO1/2) with CP and (Z)-3-hexenal yielded a m/z 347.19 peak with identical MS/MS spectrum and retention time as the m/z 347.19 induced in N. attenuata leaves (FIG. 46). Additionally, by-products of doubly charged CP dimers at m/z 250.13 ([M+2H]2+, C26H36N4O62+) which are not detected in oral secretion-induced leaves of N. attenuata WT (Data 2) were also produced in vitro (FIG. 16 and FIG. 47). These doubly charged CP dimers were only produced when the quantities of the (Z)-3-hexenal substrate were lower than those of the CP substrate in vitro. […]
(§4) In vitro assays of NaPPO1, NaPPO2, and NaBBL2: NaPPO1, NaPPO2, and NaBBL2 enzyme activity assays were performed by incubating 100 μg of the purified recombinant protein in 84 mM acetate buffer (pH 4.8) containing 20 mM (E)-N-caffeoylputrescine (BOC Sciences, catalogue #: B0005-053482) and 1 M cis-3-hexenal (Sigma, catalogue #: W256102-SAMPLE-K) or trans-2-hexenal (Sigma, catalogue #: W256005-1KG-K). During incubation of the enzyme reactions at 8° C., 1 μL of the reactions buffer was directly injected and analyzed by LC-MS every h to detect products. […]

Series [2] concerns the target T1, NaPPO1 (Nicotiana attenuata, UniProt A0A1J6JLI9).
T1 sequence (A0A1J6JLI9 1-596): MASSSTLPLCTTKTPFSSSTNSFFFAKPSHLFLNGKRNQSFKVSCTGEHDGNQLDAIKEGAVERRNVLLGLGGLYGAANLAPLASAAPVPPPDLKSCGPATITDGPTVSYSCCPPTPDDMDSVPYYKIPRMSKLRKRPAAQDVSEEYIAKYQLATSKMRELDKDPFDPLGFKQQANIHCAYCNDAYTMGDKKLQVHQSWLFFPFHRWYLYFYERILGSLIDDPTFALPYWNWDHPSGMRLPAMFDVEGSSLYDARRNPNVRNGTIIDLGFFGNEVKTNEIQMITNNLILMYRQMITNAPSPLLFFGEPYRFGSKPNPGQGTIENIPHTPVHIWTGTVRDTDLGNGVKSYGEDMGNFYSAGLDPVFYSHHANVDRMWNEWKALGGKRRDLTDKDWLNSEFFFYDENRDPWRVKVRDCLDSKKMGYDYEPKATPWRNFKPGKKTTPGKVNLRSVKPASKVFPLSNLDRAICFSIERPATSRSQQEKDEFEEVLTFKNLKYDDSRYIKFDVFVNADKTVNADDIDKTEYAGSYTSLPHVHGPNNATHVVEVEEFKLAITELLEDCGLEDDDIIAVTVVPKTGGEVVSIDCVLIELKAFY
Nature of the series: In vitro enzyme assay, substrate specificity of NaPPO1. In kind it is biochemical.
From the text: as §1, §2, §3, §4

Series [3] has as its system Empoasca leafhoppers. In words: In vivo Empoasca choice assay, compounds infiltrated into irMYC2 leaves. Further details: species or system Empoasca decipiens. The following applies: synthetic CoP 7 μM, CP 100 μM, FP 10 μM in 0.1% DMSO infiltrated into irMYC2 leaves. As for the experimental part:
The spermi-dine-derived metabolites could be excluded as mediators of Empoasca nonhost resistance based on the lack of responses of leafhoppers to the irDH29 and irCV86 lines (FIG. 5). To further explore the involvement of CoP, CP and FP, in vivo Empoasca choice assays were conducted by individually infiltrating physiologically relevant concentrations of synthetic CoP (7 μM), CP (100 μM) and FP (10 μM) into leaves of irMYC2 plants which were devoid of elicited phenolamides (FIG. 9 and FIG. 34).
Two replicates of the 650 RILs from a 26-parent MAGIC population and their 26 parental 5 lines were planted at the WCCER field station, Prescott, Arizona, USA. To elicit a standardized herbivory response, leaves of all RILs, which were in the early-flowering stage were wounded and immediately treated with diluted Manduca sexta oral secretions (W+OS) or left untreated (control) and harvested on dry ice at 1 h and 72h. One week after metabolite sampling, all plants of the field population were screened for natural Empoasca leafhopper numbers and damage; these leafhoppers had opportunistically sampled the N. attenuata plants from neighboring native cu-cumber hostplants. The mQTL and eQTL mapping between SNPs and the relative abundance of each compound or transcript using a set of 646 RILs of the MAGIC population was done with the R package software GAPIT using General linear models (GLM). The multi-omics co-association network was built from correlations among metabolomes, transcriptomes, phytohormones and SNPs. […] Metabolome diversity and specialization and metabolic specificity was calculated using information theory by consider-ing the Shannon entropy of the idMS/MS frequency distributions. […] OS-induced volatile emissions were collected using polydimethylsiloxane (PDMS) tubing from 650 MAGIC RILs planted in the main MPI-CE glasshouse and analyzed bythermal desorption-gas chromatography-mass spectrometry (TD-GC-MS). […]

Series [4] concerns Empoasca decipiens. In words: In vitro Empoasca non-choice (direct feeding) assay on artificial diet. The following applies: for changes in mortality rates of E. decipiens compared to glucose controls: physiologically relevant concentrations (CoP 7 μM, CP 100 μM, FP 10 μM) in 10% glucose solution. The format is in vivo. As for the experimental part:
FIG. 18 Mortality rates of in vitro Empoasca non-choice assays (n=4, 25 Empoasca leafhoppers per replicate) in which Empoasca were fed for 6 h with either 1 μM m/z 347.19 synthesized by using NaPPO1/NaPPO2 and CP and Z3H and diluted in 10% glucose solution or with 10% glucose as control (top). Empoasca in planta choice assays (n=8) conducted with VIGS plants of EV, PPO1, PPO2 and AT1 (bottom).
To test if CPH is responsible for Empoasca resistance, E. decipiens were fed with physiologically relevant concentrations of 1 μM (estimated from field-collected elicited leaves) of NMR-confirmed CPH in diets containing 10% glucose in vitro. […] NaAT1 expression was silenced in N. attenuata plants using VIGS, which disrupted the production of both CP and the CPH (Li et al., Proc Natl Acad Sci USA 112, E4147-4155 (2015)) (FIG. 13).
Empoasca feeding assays: The survival rate of Empoasca feeding on artificial diet (10% 5 sucrose in water) supplemented with caffeoylputrescine (CP, 100 μM), coumaroylputrescine (CoP, 7 μM), feruloylputrescine (FP, 10 μM), or the m/z 347.19 hexenyl derivative of CP (CPH, 1 μM) was recorded every 1 h overnight. The artificial feeding devices consisted of a 50-mL Falcon tube with a 7-mm hole drilled into the conical bottom through which the leafhoppers were aspi-rated into the tube and which then was covered with Parafilm punctured with needles to create ventilation holes. The large opening of the Falcon tube was covered with a double layer of Parafilm containing the liquid diet (100 μL). The artificial feeding devices were placed upside down with the liquid diet side down on a White Light Box (STRATAGENE) to provide bottom-light illu-mination.

The nature of series [5]: Estimation of half-life of m/z 347.19 by NMR time acquisitions. In kind it is physicochemical. The following applies: acidified methanol-d3 (0.1% formic acid), room temperature, darkness. The source says: FIG. 55 Estimation of half-life of m/z 347.19. Different time acquisitions of NMR spectra for purified m/z 347.19 are shown.
(§5) To elucidate the chemical structure of m/z 347.19, it was attempted to isolate and purify the m/z 347.19 using induced N. attenuata leaf material and enzyme assay-derived products. However, several attempts failed due to the instability of m/z 347.19. […] These observations indicate that m/z 347.19 is reactive and unstable at high pH. The purification procedures for m/z 347.19 were modified to produce large quantities from enzymatic assays under weak acidic conditions and purified m/z 347.19 using solid phase extraction under argon atmospheres. The purified m/z 347.19 was then subjected to NMR analysis, which elucidated its structural identity as a CP-5-(Z)-3-hexenal compound (hereafter named CPH) (FIG. 54). […] CPH contains both a reactive moiety of a, 3-unsaturated aldehyde derived from (Z)-3-hexenal, which is electrophilic, and an amine feature of the caffeoylputrescine, which is nucleophilic.

A short description of series [6]: Stability of m/z 347.19 during sample extraction and purification. In kind it is physicochemical.
From the text: as §5

Entries after “also recorded” stand apart in the source; their conditions may differ.

Sequence of NaPPO2 (A0A1J6IKE9 entry or part of it): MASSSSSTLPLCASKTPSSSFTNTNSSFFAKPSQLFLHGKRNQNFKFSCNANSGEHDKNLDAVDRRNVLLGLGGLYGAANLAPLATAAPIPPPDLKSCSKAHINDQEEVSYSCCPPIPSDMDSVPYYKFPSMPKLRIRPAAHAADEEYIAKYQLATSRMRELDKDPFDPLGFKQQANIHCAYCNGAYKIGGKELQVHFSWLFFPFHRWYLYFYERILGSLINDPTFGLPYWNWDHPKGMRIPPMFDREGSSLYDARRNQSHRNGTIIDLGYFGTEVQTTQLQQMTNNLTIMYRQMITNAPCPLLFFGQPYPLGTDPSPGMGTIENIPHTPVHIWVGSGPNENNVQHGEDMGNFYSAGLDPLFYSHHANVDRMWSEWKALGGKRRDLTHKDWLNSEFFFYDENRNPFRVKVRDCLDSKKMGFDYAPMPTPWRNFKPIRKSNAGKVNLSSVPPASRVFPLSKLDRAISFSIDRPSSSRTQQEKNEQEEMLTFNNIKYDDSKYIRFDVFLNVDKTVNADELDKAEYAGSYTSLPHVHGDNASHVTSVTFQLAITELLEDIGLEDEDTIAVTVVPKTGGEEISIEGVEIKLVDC

`CCC/C=C/C=O` [(E)-2-hexenal]: the “enzyme activity (m/z 347.19 production)” value is “little-to-no activity” in series [1] (NaPPO2 incubated with CP and (E)-2-hexenal); “little-to-no activity” in series [2] (NaPPO1 incubated with CP and (E)-2-hexenal).
Turning to `O=C(/C=C/c1ccc(O)c(O)c1)O[C@@H]1C[C@](O)(C(=O)O)C[C@@H](O)[C@H]1O` [CGA, chlorogenic acid], the “acceptance as substrate (new products)” value is listed as “not accepted as substrates” in series [1] (incubated with NaPPO2 and (Z)-3-hexenal); “not accepted as substrates” in series [2] (incubated with NaPPO1 and (Z)-3-hexenal).
For `NCCCCNC(=O)/C=C/c1ccc(O)c(O)c1` [CP, N-caffeoylputrescine], the “preference of Empoasca for irMYC2 plants” value in series [3] is on record as “did not alter the preference; also recorded: not affecting leafhopper behavior or performance”. Also, the “changes in mortality rates of E. decipiens compared to glucose controls” value in series [4] is given as “no significant changes in mortality rates; also recorded: not affecting leafhopper behavior or performance”.
Regarding `CCC(/C=C/C=O)c1cc(O)c(O)cc1/C=C/C(=O)NCCCCN` (centres unmarked) [CPH, CP-5-(Z)-3-hexenal], in series [5], the half-life is around 22 h. In addition, the Stability entry is “Yes” in series [6] (Leaf sample collection using Eppendorf tubes without direct contact with liquid N2); “No” in series [6] (Leaf sample collection using aluminium foil in liquid N2); “Yes” in series [6] (Purifying using SPE column with argon flow); “No” in series [6] (Purifying using freeze drying); “No” in series [6] (Purifying using rotary evaporator); “Yes” in series [6] (Sample extraction buffer pH 4.8). Besides, the Stability entry in series [6] (Sample extraction buffer pH 10) was “No”. The stability in buffer result in series [6] (ammonium-acetate buffer (pH 4.8)) was “relatively stable”. Besides, the stability when concentrated entry in series [6] (concentrated by rotatory evaporation or freeze drying) is recorded as “rapidly decomposed”. Further, the “stability at high pH” value in series [6] (high pH) was “unstable”. Further, the mortality at 1 µM in series [4] (Empoasca decipiens, feed or water, 1 μM in diet containing 10% glucose, after 6 h of feeding, vs control diet, read-out: mortality of E. decipiens) was around 100%.
Take `COc1cc(/C=C/C(=O)NCCCCN)ccc1O` [FP, N-feruloylputrescine]: the “preference of Empoasca for irMYC2 plants” value in series [3] is recorded as “did not alter the preference; also recorded: not affecting leafhopper behavior or performance”. The “changes in mortality rates of E. decipiens compared to glucose controls” value in series [4] is reported as “no significant changes in mortality rates; also recorded: not affecting leafhopper behavior or performance”.

The half-life is how long it takes for the measured level to halve. A word on the mortality: it is the share of the test organisms that died.
